US8772012B2 (Kabushiki Kaisha Toyota Chuo Kenkyusho, priority 2009, dated 2014)

How the values were obtained:
[1] = system: Clostridium phytofermentans xylose isomerase CpXI (protein ID: YP_001558336), expressed in yeast; details: Non-patent Literature 1; cited from earlier work
[2] = molecular target: Piromyces sp. E2 xylose isomerase PiXI-O (PiXI; codon optimized gene PiXI-O, SEQ ID NO: 46), expressed in yeast (Piromyces sp. E2, UniProt A0ACD6B9F5); experiment: Xylose isomerase kinetic analysis, crude yeast extract of W600W/pRS436GAP-PiXI-O (SDH-coupled NADH oxidation); type: biochemical
Protocol: (§1) The genes were synthesized by Genscript Corporation (www.Genscript.com) and Life Technologies Corporation (www.lifetechnologies.com), and the synthesized genes were named RsXIC1-O (SEQ ID NO: 45), PiXI-O (SEQ ID NO: 46) and CpXI-O (SEQ ID NO: 47), respectively.
(§2) The W600W/pRS436GAP-RsXIC1-O strain and W600W/pRS436GAP-PiXI-O strain were cultured for 24 hours in SD liquid medium, and the cells were collected and washed twice with sterile water, and then washed twice with 100 mM phosphate buffer (pH 7.0). After washing, glass beads (di 0.3 mm, Yasui Kikai) and 100 mM phosphate buffer (pH 7.0) were added to the yeast pellets, and a Multi-beads shocker (Yasui Kikai) was operated for 7 minutes at 4° C., 2500 rpm to disrupt the yeast cells. The resulting disrupted cell liquid was centrifuged for 5 minutes at 4° C., 12000 rpm, and the supernatant was collected as a crude yeast extract. The total protein concentration of the crude yeast extract was measured with a Quick Start protein assay kit (Bio-Rad).
(§3) The reaction was performed at 30° C., and NADH absorbancy changes were measured at a wavelength of 340 nm with a Ubest-55 spectrometer (Jasco).

[3] = system: Xylose isomerase RsXIC1-O (RsXI-C1, SEQ ID NO: 2; codon optimized gene RsXIC1-O, SEQ ID NO: 45), intestinal protist of Reticulitermes speratus, expressed in …; experiment: Xylose isomerase kinetic analysis, crude yeast extract of W600W/pRS436GAP-RsXIC1-O (SDH-coupled NADH oxidation); type: biochemical
Protocol: as §1, §2, §3

[4] = system: Piromyces sp. E2 xylose isomerase PiXI, expressed in yeast; details: Non-patent Literature 1; cited from earlier work
[5] = xylose 5 to 250 mM, pH 7.5, 30° C., 10 mM MgCl2, crude yeast extract, Hanes-Woolf plot

Chain of Piromyces sp. E2 xylose isomerase PiXI-O (PiXI; codon optimized gene PiXI-O, SEQ ID NO: 46), expressed in yeast (A0ACD6B9F5 1-437): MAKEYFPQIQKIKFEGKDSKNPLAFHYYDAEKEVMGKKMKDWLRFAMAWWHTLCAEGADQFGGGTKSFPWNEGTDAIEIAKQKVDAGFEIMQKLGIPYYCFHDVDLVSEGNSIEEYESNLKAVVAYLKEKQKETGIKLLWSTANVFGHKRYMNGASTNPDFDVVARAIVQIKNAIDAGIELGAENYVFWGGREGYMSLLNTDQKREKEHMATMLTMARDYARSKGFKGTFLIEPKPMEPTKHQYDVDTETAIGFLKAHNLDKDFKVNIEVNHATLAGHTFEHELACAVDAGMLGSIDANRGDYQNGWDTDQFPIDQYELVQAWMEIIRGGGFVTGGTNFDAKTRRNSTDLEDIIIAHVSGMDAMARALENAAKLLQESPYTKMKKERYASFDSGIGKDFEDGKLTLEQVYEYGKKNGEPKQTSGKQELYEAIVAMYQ

For OC1OC[C@@H](O)[C@H](O)[C@H]1O (stereo partly shown) [xylose], the Km [1] is listed as 66 ± 1 mM, the “maximum reaction velocity Vmax for PiXI-O relative to RsXIC1-O” value ([2]; Vmax ratio PiXI-O vs RsXIC1-O) is listed as “about 1.5 times” and the Vmax [2, 5] is listed as 0.078 ± 0.026 μmol/mg-protein. The “Km value for RsXIC1-O relative to the value for PiXI-O” value ([3]; Km ratio RsXIC1-O vs PiXI-O) was “not more than ⅓”, the Km [3, 5] was 13.3 ± 2.02 mM and the Vmax [3, 5] was 0.054 ± 0.007 μmol/mg-protein. The Km [4] was 49.8 ± 2.82 mM.
